Data taken from the supplement of paper PMC10307832.

Tests used:
Assay in all cases: relative viability (nuclei count vs DMSO), 5 days (fraction); higher = more cells survive
CAL-12T = tested on: CAL-12T
Summary of the method: (§1)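 Values are medians from duplicate plates. Each reflects relative viability, defined as the nuclei count of treated wells over that of vehicle wells. Lung cancer cell lines in 1536-well plates were pin-tool dosed one day after seeding with one drug alone or with a fixed anchor-drug dose plus five library-drug doses (not always all listed) in √10 steps, then fixed, stained and imaged at 4× after 5 days.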

COR-L 105 = tested on: COR-L 105
Summary of the method: as §1

NCI-H1915 = tested on: NCI-H1915
Summary of the method: as §1

HCC-827 = tested on: HCC-827
Summary of the method: as §1

HCC-366 = tested on: HCC-366
Summary of the method: as §1

NCI-H1437 = tested on: NCI-H1437
Summary of the method: as §1

NCI-H1395 = tested on: NCI-H1395
Summary of the method: as §1

NCI-H460 = tested on: NCI-H460
Summary of the method: as §1

HOP-62 = tested on: HOP-62
Summary of the method: as §1

NCI-H23 = tested on: NCI-H23
Summary of the method: as §1

SK-LU-1 = tested on: SK-LU-1
Summary of the method: as §1

NCI-H2009 = tested on: NCI-H2009
Summary of the method: as §1

LCLC-103H = tested on: LCLC-103H
Summary of the method: as §1

A-427 = tested on: A-427
Summary of the method: as §1

NCI-H2228 = tested on: NCI-H2228
Summary of the method: as §1

NCI-H1755 = tested on: NCI-H1755
Summary of the method: as §1

NCI-H727 = tested on: NCI-H727
Summary of the method: as §1

EMC-BAC-2 = tested on: EMC-BAC-2
Summary of the method: as §1

HARA = tested on: HARA
Summary of the method: as §1

NCI-H1975 = tested on: NCI-H1975
Summary of the method: as §1

NCI-H1355 = tested on: NCI-H1355
Summary of the method: as §1

SW 1573 = tested on: SW 1573
Summary of the method: as §1

## Oc1nc(-c2ccc(C(F)(F)F)cc2)nc2c1CSCC2 [XAV939] + Cc1cc(Nc2cc(N3CCN(C)CC3)nc(Sc3ccc(NC(=O)C4CC4)cc3)n2)n[nH]1 [Tozasertib] (partner 0.1 µM)
CAL-12T; first compound 0.08 µM
  relative viability: 0.386
CAL-12T; first compound 0.253 µM
  relative viability: 0.29
CAL-12T; first compound 0.8 µM
  relative viability: 0.222
CAL-12T; first compound 2.53 µM
  relative viability: 0.196
COR-L 105; first compound 0.08 µM
  relative viability: 0.358
COR-L 105; first compound 0.253 µM
  relative viability: 0.374
COR-L 105; first compound 0.8 µM
  relative viability: 0.349
COR-L 105; first compound 2.53 µM
  relative viability: 0.343
NCI-H1915; first compound 0.08 µM
  relative viability: 0.5
NCI-H1915; first compound 0.253 µM
  relative viability: 0.444
NCI-H1915; first compound 0.8 µM
  relative viability: 0.416
NCI-H1915; first compound 2.53 µM
  relative viability: 0.43
HCC-827; first compound 0.08 µM
  relative viability: 0.423
HCC-827; first compound 0.253 µM
  relative viability: 0.387
HCC-827; first compound 0.8 µM
  relative viability: 0.414
HCC-827; first compound 2.53 µM
  relative viability: 0.384
HCC-366; first compound 0.08 µM
  relative viability: 0.163
HCC-366; first compound 0.253 µM
  relative viability: 0.0951
HCC-366; first compound 0.8 µM
  relative viability: 0.116
HCC-366; first compound 2.53 µM
  relative viability: 0.0569
NCI-H1437; first compound 0.08 µM
  relative viability: 0.419
NCI-H1437; first compound 0.253 µM
  relative viability: 0.335
NCI-H1437; first compound 0.8 µM
  relative viability: 0.443
NCI-H1437; first compound 2.53 µM
  relative viability: 0.414
NCI-H1395; first compound 0.08 µM
  relative viability: 0.716
NCI-H1395; first compound 0.253 µM
  relative viability: 0.651
NCI-H1395; first compound 0.8 µM
  relative viability: 0.797
NCI-H1395; first compound 2.53 µM
  relative viability: 0.632
NCI-H460; first compound 0.08 µM
  relative viability: 0.587
NCI-H460; first compound 0.253 µM
  relative viability: 0.392
NCI-H460; first compound 0.8 µM
  relative viability: 0.45
NCI-H460; first compound 2.53 µM
  relative viability: 0.289
HOP-62; first compound 0.08 µM
  relative viability: 0.372
HOP-62; first compound 0.253 µM
  relative viability: 0.339
HOP-62; first compound 0.8 µM
  relative viability: 0.338
HOP-62; first compound 2.53 µM
  relative viability: 0.329
NCI-H23; first compound 0.08 µM
  relative viability: 0.403
NCI-H23; first compound 0.253 µM
  relative viability: 0.373
NCI-H23; first compound 0.8 µM
  relative viability: 0.343
NCI-H23; first compound 2.53 µM
  relative viability: 0.357
SK-LU-1; first compound 0.08 µM
  relative viability: 0.35
SK-LU-1; first compound 0.253 µM
  relative viability: 0.267
SK-LU-1; first compound 0.8 µM
  relative viability: 0.322
SK-LU-1; first compound 2.53 µM
  relative viability: 0.279
NCI-H2009; first compound 0.08 µM
  relative viability: 0.84
NCI-H2009; first compound 0.253 µM
  relative viability: 0.66
NCI-H2009; first compound 0.8 µM
  relative viability: 0.713
NCI-H2009; first compound 2.53 µM
  relative viability: 0.647
LCLC-103H; first compound 0.08 µM
  relative viability: 0.576
LCLC-103H; first compound 0.253 µM
  relative viability: 0.402
LCLC-103H; first compound 0.8 µM
  relative viability: 0.444
LCLC-103H; first compound 2.53 µM
  relative viability: 0.504
A-427; first compound 0.08 µM
  relative viability: 0.238
A-427; first compound 0.253 µM
  relative viability: 0.164
A-427; first compound 0.8 µM
  relative viability: 0.19
A-427; first compound 2.53 µM
  relative viability: 0.193
NCI-H2228; first compound 0.08 µM
  relative viability: 0.31
NCI-H2228; first compound 0.253 µM
  relative viability: 0.23
NCI-H2228; first compound 0.8 µM
  relative viability: 0.247
NCI-H2228; first compound 2.53 µM
  relative viability: 0.255
NCI-H1755; first compound 0.08 µM
  relative viability: 0.575
NCI-H1755; first compound 0.253 µM
  relative viability: 0.518
NCI-H1755; first compound 0.8 µM
  relative viability: 0.587
NCI-H1755; first compound 2.53 µM
  relative viability: 0.481
NCI-H727; first compound 0.08 µM
  relative viability: 0.69
NCI-H727; first compound 0.253 µM
  relative viability: 0.543
NCI-H727; first compound 0.8 µM
  relative viability: 0.769
NCI-H727; first compound 2.53 µM
  relative viability: 0.62
EMC-BAC-2; first compound 0.08 µM
  relative viability: 0.272
EMC-BAC-2; first compound 0.253 µM
  relative viability: 0.283
EMC-BAC-2; first compound 0.8 µM
  relative viability: 0.259
EMC-BAC-2; first compound 2.53 µM
  relative viability: 0.201
HARA; first compound 0.08 µM
  relative viability: 0.107
HARA; first compound 0.253 µM
  relative viability: 0.0774
HARA; first compound 0.8 µM
  relative viability: 0.102
HARA; first compound 2.53 µM
  relative viability: 0.103
NCI-H1975; first compound 0.08 µM
  relative viability: 0.729
NCI-H1975; first compound 0.253 µM
  relative viability: 0.736
NCI-H1975; first compound 0.8 µM
  relative viability: 0.683
NCI-H1975; first compound 2.53 µM
  relative viability: 0.514
NCI-H1355; first compound 0.08 µM
  relative viability: 0.715
NCI-H1355; first compound 0.253 µM
  relative viability: 0.473
NCI-H1355; first compound 0.8 µM
  relative viability: 0.548
NCI-H1355; first compound 2.53 µM
  relative viability: 0.411
SW 1573; first compound 0.08 µM
  relative viability: 0.174
SW 1573; first compound 0.253 µM
  relative viability: 0.139
SW 1573; first compound 0.8 µM
  relative viability: 0.211
SW 1573; first compound 2.53 µM
  relative viability: 0.213
